Article PMC5325384, “Novel synthetic cyclic integrin αvβ3 binding peptide ALOS4: antitumor activity in mouse melanoma models” (Oncotarget, 2016)
Where a SMILES comes first, the peptide text is derived from it. Bridges are numbered along the chain shown (N, C = ends). Where no end group is shown, it is not given here. The star is where a group is joined. FITC = O=C1OC2(c3ccc(O)cc3Oc3cc(O)ccc32)c2ccc(NC(=S)*)cc21; GABA = NCCCC(=O)O

Experiments:
[1] = system: B16F10 mouse melanoma cells; assay: Immunofluorescence microscopy of cell binding and uptake; assay type: cell-based; conditions: 10 μM ALOS4-FITC, 37°C, confocal microscopy
Protocol: Poly-L-lysine (1 h, 37°C; cat# P8920, Sigma-Aldrich) coated slides (cat# PEZGS0816, Merck) were washed 2x with PBS (pH 7.4), 1.5×10^4 B16F10 cells per well were seeded in RPMI (10% FCS) and allowed to incubate overnight (37°C, 5% CO2). ALOS4-FITC (10 μM) was added to slide wells up to 60 min (37°C, 5% CO2), then cells were fixed in paraformaldehyde (4%, 10 min). Following PBS washes (2x) and removal of excess buffer, cells were stained with a mounting medium containing DAPI (cat# H-1500, Vector Laboratories, Burlingame, CA). Slides were imaged by confocal microscopy.

[2] = Weight of non-inoculated mice under daily treatment; assay type: in vivo, mouse; conditions: 16-week old C57BL/6, 0.3 mg/kg i.p. daily for 28 days; data not shown
integrin αvβ3 [3] = biological target: T1, integrin αvβ3 (Homo sapiens, UniProt P06756); assay: fluorescence plate saturation binding assay
T1 chain 1: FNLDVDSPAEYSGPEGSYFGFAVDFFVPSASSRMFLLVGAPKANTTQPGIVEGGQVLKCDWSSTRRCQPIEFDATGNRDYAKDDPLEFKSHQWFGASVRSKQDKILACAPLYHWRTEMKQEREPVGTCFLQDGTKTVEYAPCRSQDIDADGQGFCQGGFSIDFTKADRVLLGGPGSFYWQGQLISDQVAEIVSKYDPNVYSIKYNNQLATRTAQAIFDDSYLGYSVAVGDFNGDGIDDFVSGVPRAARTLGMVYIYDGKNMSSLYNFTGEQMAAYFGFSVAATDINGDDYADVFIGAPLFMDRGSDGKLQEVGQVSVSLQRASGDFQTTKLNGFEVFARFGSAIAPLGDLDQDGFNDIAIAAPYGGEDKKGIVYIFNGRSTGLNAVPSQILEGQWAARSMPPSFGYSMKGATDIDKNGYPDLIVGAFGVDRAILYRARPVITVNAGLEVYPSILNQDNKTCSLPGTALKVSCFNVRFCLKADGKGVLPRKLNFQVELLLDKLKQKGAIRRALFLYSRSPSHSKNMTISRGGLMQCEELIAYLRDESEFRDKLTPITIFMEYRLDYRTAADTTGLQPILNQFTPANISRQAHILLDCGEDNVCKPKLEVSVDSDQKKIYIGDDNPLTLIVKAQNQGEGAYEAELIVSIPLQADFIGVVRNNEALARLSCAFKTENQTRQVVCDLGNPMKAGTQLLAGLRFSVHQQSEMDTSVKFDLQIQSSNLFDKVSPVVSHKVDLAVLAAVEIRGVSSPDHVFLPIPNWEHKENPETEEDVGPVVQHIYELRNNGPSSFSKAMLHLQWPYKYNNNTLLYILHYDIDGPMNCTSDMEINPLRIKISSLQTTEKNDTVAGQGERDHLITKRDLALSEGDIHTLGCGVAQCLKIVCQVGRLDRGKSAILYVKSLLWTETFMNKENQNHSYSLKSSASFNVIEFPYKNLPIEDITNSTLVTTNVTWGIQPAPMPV
T1 chain 2: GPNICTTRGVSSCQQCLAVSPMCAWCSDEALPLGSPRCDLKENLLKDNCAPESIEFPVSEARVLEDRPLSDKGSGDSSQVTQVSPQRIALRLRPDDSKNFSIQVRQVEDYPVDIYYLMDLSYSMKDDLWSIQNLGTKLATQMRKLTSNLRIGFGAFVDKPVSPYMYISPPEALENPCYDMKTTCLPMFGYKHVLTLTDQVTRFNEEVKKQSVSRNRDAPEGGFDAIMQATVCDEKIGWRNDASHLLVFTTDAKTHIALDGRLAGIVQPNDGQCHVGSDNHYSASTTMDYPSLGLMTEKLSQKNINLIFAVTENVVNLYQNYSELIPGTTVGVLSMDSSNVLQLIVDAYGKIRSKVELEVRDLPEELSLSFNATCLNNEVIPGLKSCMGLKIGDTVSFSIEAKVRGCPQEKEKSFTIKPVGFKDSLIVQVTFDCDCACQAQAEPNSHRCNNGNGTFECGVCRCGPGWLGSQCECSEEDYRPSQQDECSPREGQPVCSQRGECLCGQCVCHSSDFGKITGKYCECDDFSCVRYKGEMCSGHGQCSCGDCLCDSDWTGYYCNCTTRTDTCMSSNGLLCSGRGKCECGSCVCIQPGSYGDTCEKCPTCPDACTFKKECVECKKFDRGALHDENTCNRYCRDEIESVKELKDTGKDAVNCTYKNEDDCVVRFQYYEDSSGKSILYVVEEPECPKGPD

integrin αvβ3 [4] = biological target: T1, integrin αvβ3; assay: fluorescence competition binding assay with ALOS4-FITC

CC(C)C[C@@H]1NC(=O)[C@H](CO)NC(=O)CNC(=O)[C@H](C)NC(=O)[C@H](CO)NC(=O)[C@H](CO)NC(=O)[C@@H](NC(=O)CCCNC(=S)Nc2ccc3c(c2)C(=O)OC32c3ccc(O)cc3Oc3cc(O)ccc32)CSSC[C@@H](C(=O)O)NC(=O)[C@H](Cc2ccccc2)NC1=O [ALOS4-FITC] ({FITC-GABA}-CSSAGSLFC-OH; disulfide 1-9)
association with cells, 10 min ([1]; 10 min): rapidly adheres to the cell surface | translocation into cells, 30 min ([1]; 30 min): appears to translocate quickly to the cell cytoplasm | intracellular localization, 60 min ([1]; up to 60 min): a majority of ALOS4-FITC migrated to the nuclear envelope and/or surrounding endoplasmic reticular membranes

CC(C)C[C@@H]1NC(=O)[C@H](CO)NC(=O)CNC(=O)[C@H](C)NC(=O)[C@H](CO)NC(=O)[C@H](CO)NC(=O)[C@@H](N)CSSC[C@@H](C(=O)O)NC(=O)[C@H](Cc2ccccc2)NC1=O [ALOS4] (H-CSSAGSLFC-OH; disulfide 1-9)
effect on animal weight, non-inoculated mice [2]: did not have any effect on animal weight

{FITC-ε‑Acp}-CSSAGSLFC (disulfide 1-9 (inferred)) [ALOS4-FITC]
Kd (integrin αvβ3 [3]): 192 nM

CSSAGSLFC (disulfide 1-9 (inferred)) [ALOS4]
Kd (integrin αvβ3 [4]): 2550 nM
